Test results: patent publication US20250073234A1, “COMBINATION THERAPIES INCLUDING PARP1 INHIBITORS” (Cornell University, priority 2022, published 2025)

Experiments:
WPMY-1 cells = test: qPCR of CAF / stromal activation markers in WPMY-1 cells; type: cell-based, human
Excerpt: To knock out PARP-1 in WPMY-1 cells, single-guide RNA sequences targeting PARP-1 exon2 were purchased from Synthego and transduced into WPMY-1 cells with recombinant Streptococcus pyogenes Cas9 protein (Truecut Cas9 Protein v2, Thermo), using the Neon Transfection System 1 (Invitrogen) following the manufacturer's protocol and single clones were expanded and screened by protein immunoblotting. To perform AP1-A binding site editing in the SQSTM promoter in WPMY-1 cells, single-guide RNA sequences targeting the human AP1-A binding site (Synthego) was transduced into cells with a Cas9 protein and a single-stranded donor oligonucleotide (ssODN, IDT) using Neon Electroporation System. Single clones were expanded and screened for AP1-A editing by Sanger sequencing. A point mutation to disrupt the API enhancer element in the p62 promoter was introduced by Site Directed Mutagenesis (Stratagene). Knockdown of MCT1, MCT4, FOS, PARP1, PARP2, CD38, ATG5, and SIRT1-7 genes in WPMY-1 cells were achieved by siRNA transfection using Lipofectamine RNAiMAX Transfection Reagent (Invitrogen). Transient overexpression was achieved by transfection using X-tremeGENE HP transfection reagent (Roche). Transfected cells were examined 48 hours after transfection. Establishing stably GFP or RFP expressing cells was achieved by lentivirus-mediated transduction. Lentivirus were produced in HEK293T cells using X-tremeGENE HP transfection reagent (Roche). Virus-containing supernatants were collected 48, 72 and 96 hours after transfection, filtered to eliminate cells, and supplemented with 8 μg/ml polybrene. Cells were infected with three rounds of viral supernatants and selected with puromycin (3 μg/ml). For autophagy or proteasome inhibition, WPMY-1 cells were treated for 12 hours with 100 nM bafilomycin Al or 12 hours with 20 μM of MG132, respectively, or vehicle (DMSO). For PARP1 inhibition, WPMY-1 cells were treated with PJ34 (2 days) or Olaparib (4 days) at the doses indicated in each experiment. For MCT1 inhibition, WPMY-1 cells were treated for 48 hours with 10 μM of AZD3965. For cJUN inhibition, WPMY-1 cells were treated for 48 hours with 10 μM of SP600125. For calpains and caspases inhibition, WPMY-1 cells were treated for 48 hours with 1-20 μM of Calpeptin (Tocris) or z-VAD-FMK (Tocris), respectively. For protein synthesis inhibition, WPMY-1 cells were treated with 50 μg/ml of cycloheximide (Sigma). Conditioned media (CM) was generated by collecting supernatant on day 3. CM was transferred to a 15 ml BD Falcon tube and centrifuged at 1300 rpm for 10 minutes. The supernatant was sterile filtered using a […] (Millex-GV) with a 10 ml syringe barrel. The samples were stored at […] for future experiments. Fractionation of the CM was achieved using Amicon Ultra centrifugal filters (3KUltracel, Millipore). The supernatant was centrifuged at 4000 rpm for 1 hour. The supernatant fraction that was >3 kDa remained above the filter and that which was <3 kDa passed through to the lower chamber. The >3-kDa fraction was resuspended in DMEM to the pre-filtration volume.
Total RNA from mouse tissues, cells and cultured organoids was extracted using the TRIZOL reagent (Invitrogen) and the RNeasy Mini Kit (QIAGEN), followed by DNase treatment. After quantification using a Nanodrop 1000 spectrophotometer (Thermo Scientific), RNA was either processed for RNA-seq or reverse-transcribed using random primers and MultiScribe Reverse Transcriptase (Applied Biosystems). Gene expression was analyzed by amplifying 20 ng of the complementary DNA using the CFX96 Real Time PCR Detection System with SYBR Green Master Mix (BioRad) and primers described in Table S1. The amplification parameters were set at 95° C. for 30 seconds, 58° C. for 30 seconds, and 72° C. for 30 seconds (40 cycles total). Gene expression values for each sample were normalized to the 18s RNA.

[1] = system: c-FOS and c-JUN at the AP-1A site of the SQSTM1 promoter; test: ChIP-PCR of SQSTM1 promoter (AP-1A) occupancy in WPMY-1 cells; type: cell-based, human; details: 48 h
Procedure: WPMY-1 cells were fixed by adding directly to the culture medium formaldehyde (HCHO; from a 37% HCHO-10% methanol stock, Calbiochem) to a final concentration of 1%. […] Chromatin was sheared in a COVARIS S220 Focused-ultrasonicator to yield DNA fragment sizes of 200-1000 base pairs, and diluted 10 times in dilution buffer (20 mM Tris pH 8.0, 2 mM EDTA, 1% triton X-100, 150 mM NaCl and protease inhibitors). Immunoprecipitations were carried out overnight at 4° C. using the following protein A-antibodies complexes: cFOS, FOSB, cJUN, JUNB.
Immunocomplexes were washed three times with buffer TSEI (20 mM Tris pH 8.0, 2 mM EDTA, 1% triton X-100, 150 mM NaCl, 0.1% SDS and protease inhibitors), three washes with buffer TSEII (20 mM Tris pH 8.0, 2 mM EDTA, 1% triton X-100, 500 mM NaCl, 0.1% SDS and protease inhibitors), one wash with buffer TSEIII (10 mM Tris pH 8.0, 250 mM LiCl, 1 mM EDTA, 1% NP40, 1% Deoxycholate and protease inhibitors) and one wash with TE pH 8.0.
Immunocomplexes were extracted in TE containing 1% SDS, and protein-DNA cross-links were reverted by heating at 65° C. overnight. DNA was extracted by using a PCR purification kit (Qiagen). One-tenth of the immunoprecipitated DNA was used in each PCR, for which the promoter-specific primers were used.

NC(=O)c1ccc[n+]([C@@H]2O[C@H](COP(=O)([O-])OP(=O)(O)OC[C@H]3O[C@@H](n4cnc5c(N)ncnc54)[C@H](O)[C@@H]3O)[C@@H](O)[C@H]2O)c1 [NAD^+]
lactate-induced expression of CAF activation markers (WPMY-1 cells; lactate plus NAD+, 48 h): reverted
recruitment of c-FOS and c-JUN to the AP-1 regulatory site in lactate-treated cells ([1]; added to lactate-treated WPMY-1 cells): rescued

O=C(c1cc(Cc2n[nH]c(=O)c3ccccc23)ccc1F)N1CCN(C(=O)C2CC2)CC1 [Olaparib]
CAF markers (ACTA2, SFRP1, TGFB, MMP9, HA synthases) (WPMY-1 cells; Olaparib, basal and ADT conditions): upregulated CAF markers
Has1 and Has3 expression (WPMY-1 cells; basal and ADT conditions): upregulated
Tgfb1 levels (WPMY-1 cells; basal and ADT conditions): increased levels of Tgfb1
SPINK1 levels (WPMY-1 cells; human prostate cells, ADT conditions): highly upregulated
recruitment of c-FOS and c-JUN to the AP-1A binding site in the SQSTM1 promoter ([1]; Olaparib 20 μM): impaired the recruitment of c-FOS and c-JUN
